Data taken from ChEMBL document CHEMBL5113489, “Design, synthesis, and biological evaluation of membrane-active honokiol derivatives as potent antibacterial agents” (Eur J Med Chem, 2022).

What was measured:
[1] = system: Staphylococcus aureus; assay: Antibacterial activity against Staphylococcus aureus ATCC 25923; type: functional
[2] = system: Staphylococcus aureus; assay: Anti-biofilm activity in Staphylococcus aureus ATCC 43300 assessed as disruption rate of biofilm at 0.5 ug/ml measured by crystal violet staining method; type: functional; settings: dose 0.5 µg/ml
[3] = system: Pseudomonas aeruginosa; assay: Antibacterial activity against Pseudomonas aeruginosa ATCC 27853; type: functional
[4] = system: Escherichia coli; assay: Anti-biofilm activity in Escherichia coli ATCC 25922 assessed as inhibition of biofilm formation at 1 ug/ml; type: functional
[5] = system: Staphylococcus aureus; assay: Anti-biofilm activity in Staphylococcus aureus ATCC 43300 assessed as disruption rate of biofilm at 16 ug/ml measured by crystal violet staining method; type: functional; settings: dose 16 µg/ml
[6] = system: Staphylococcus aureus; assay: Antibacterial activity against Staphylococcus aureus ATCC 43300 assessed as resistance development by measuring fold increase in MIC; type: functional
[7] = system: Staphylococcus aureus; assay: In vivo antibacterial activity against Staphylococcus aureus ATCC 43300 in septicemia mouse model assessed as log reduction in bacterial load in kidney at 10 mg/kg, administered every 12 hrs for 3 days; type: functional
[8] = system: Staphylococcus aureus; assay: Anti-biofilm activity in Staphylococcus aureus ATCC 43300 assessed as inhibition of biofilm formation at 2 ug/ml; type: functional
[9] = system: Escherichia coli; assay: Anti-biofilm activity in Escherichia coli ATCC 25922 assessed as disruption rate of biofilm at 64 ug/ml measured by crystal violet staining method; type: functional; settings: dose 64 µg/ml
[10] = system: Escherichia coli; assay: Anti-biofilm activity in Escherichia coli ATCC 25922 assessed as inhibition of biofilm formation at 8 ug/ml; type: functional
[11] = system: Escherichia coli; assay: Anti-biofilm activity in Escherichia coli ATCC 25922 assessed as disruption rate of biofilm at 16 ug/ml measured by crystal violet staining method; type: functional; settings: dose 16 µg/ml
[12] = system: Staphylococcus aureus; assay: In vivo antibacterial activity against Staphylococcus aureus ATCC 43300 in septicemia mouse model assessed as log reduction in bacterial load in spleen at 10 mg/kg, administered every 12 hrs for 3 days; type: functional
[13] = system: Staphylococcus aureus; assay: In vivo antibacterial activity against Staphylococcus aureus ATCC 43300 in septicemia mouse model assessed as reduction in bacterial load in kidney at 10 mg/kg, administered every 12 hrs for 3 days; type: functional; set-up: scale not given: the % may be the effect or the level left
[14] = system: Staphylococcus aureus; assay: In vivo antibacterial activity against Staphylococcus aureus ATCC 43300 in septicemia mouse model assessed as reduction in bacterial load in liver at 10 mg/kg, administered every 12 hrs for 3 days; type: functional; set-up: scale not given: the % may be the effect or the level left
[15] = system: Escherichia coli; assay: Antibacterial activity against Escherichia coli ATCC 25922; type: functional
[16] = system: Escherichia coli; assay: Anti-biofilm activity in Escherichia coli ATCC 25922 assessed as inhibition of biofilm formation at 32 ug/ml; type: functional
[17] = Toxicity in septicemia mouse model infected with Staphylococcus aureus ATCC 43300 assessed as effect on spleen at 5 to 10 mg/kg, administered every 12 hrs for 3 days measured by histopathological analysis; type: organism-based; settings: in vivo, dose 5-10 mg/kg
[18] = system: Staphylococcus aureus; assay: Anti-biofilm activity in Staphylococcus aureus ATCC 43300 assessed as inhibition of biofilm formation at 0.25 ug/ml; type: functional
[19] = Toxicity in septicemia mouse model infected with Staphylococcus aureus ATCC 43300 assessed as effect on kidney at 5 to 10 mg/kg, administered every 12 hrs for 3 days measured by histopathological analysis; type: organism-based; settings: in vivo, dose 5-10 mg/kg
[20] = system: Staphylococcus aureus; assay: Anti-biofilm activity in Staphylococcus aureus ATCC 43300 assessed as disruption rate of biofilm at 4 ug/ml measured by crystal violet staining method; type: functional; settings: dose 4 µg/ml
[21] = system: Staphylococcus aureus; assay: In vivo antibacterial activity against Staphylococcus aureus ATCC 43300 in septicemia mouse model assessed as log reduction in bacterial load in liver at 10 mg/kg, administered every 12 hrs for 3 days; type: functional
[22] = Cytotoxicity against human HepG2 cells assessed as cell viability at 64 ug/ml measured by SRB assay; type: toxicity, cell-based; settings: at 64 µg/mL, read-out: Activity

C=CCc1ccc(OCCC[N+](C)(C)CCCCCC)c(-c2ccc(OCCC[N+](C)(C)CCCCCC)c(CC=C)c2)c1.[Br-].[Br-]
MIC [1]: 2 µg/mL | Activity [2]: 5.22% | MIC [3]: 16 µg/mL | inhibition at 1 µg/mL [4]: 11.3% | Activity [5]: 39.12% | fold change (FC) [6]: <4 | log(activity) [7]: 1.94 | inhibition at 2 µg/mL [8]: 20.1% | Activity [9]: 65.6% | inhibition at 8 µg/mL [10]: 49.3% | Activity [11]: 51.55% | log(activity) [12]: 2.19 | Activity [13]: 98.7% | Activity [14]: 99.5% | MIC [15]: 4 µg/mL | inhibition at 32 µg/mL [16]: 87.4% | Activity [17]: Non-Toxic | inhibition at 0.25 µg/mL [18]: 4.06% | Activity [19]: Non-Toxic | Activity [20]: 17.61% | log(activity) [21]: 2.35 | viability at 64 ug/ml [22]: 55.2%
